Molecular target: T1, GST-tagged-Wee1 kinase (Homo sapiens, UniProt P30291)
T1 construct: purchased Carnabio (Carna Biosciences) 05-177
Assay: Wee1 time-resolved fluorescence equilibrium binding assay (displacement of Oregon Green-labeled ATP-competitive kinase probe)
Conditions: read-out: Wee-1 inhibition (Ki)
Outline: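 Time-resolved fluorescence equilibrium binding with GST-Wee1, measuring displacement of a rapidly reversible Oregon Green-labelled ATP-competitive probe by competitive inhibitors; values reported as Ki.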

T1 sequence (P30291 whole entry): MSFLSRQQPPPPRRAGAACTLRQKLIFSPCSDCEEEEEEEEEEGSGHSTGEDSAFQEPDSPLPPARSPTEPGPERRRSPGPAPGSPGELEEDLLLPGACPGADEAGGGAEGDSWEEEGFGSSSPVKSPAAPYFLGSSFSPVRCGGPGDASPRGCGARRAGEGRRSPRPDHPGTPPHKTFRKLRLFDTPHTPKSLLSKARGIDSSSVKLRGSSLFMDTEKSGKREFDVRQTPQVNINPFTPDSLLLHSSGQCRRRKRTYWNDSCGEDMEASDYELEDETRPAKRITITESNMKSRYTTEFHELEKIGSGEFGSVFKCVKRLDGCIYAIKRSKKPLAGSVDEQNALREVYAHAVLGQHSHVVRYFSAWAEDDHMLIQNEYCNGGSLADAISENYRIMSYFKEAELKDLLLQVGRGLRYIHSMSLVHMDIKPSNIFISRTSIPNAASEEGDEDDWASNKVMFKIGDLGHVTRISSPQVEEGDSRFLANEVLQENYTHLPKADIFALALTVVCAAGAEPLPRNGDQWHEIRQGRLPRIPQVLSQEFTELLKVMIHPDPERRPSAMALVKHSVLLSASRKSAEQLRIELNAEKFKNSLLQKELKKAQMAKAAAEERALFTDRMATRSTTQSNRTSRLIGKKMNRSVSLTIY

Row | Ki | SMILES
1 | < 10 nM | Cc1cc(O)ccc1-n1c(=O)c2cnc(Nc3ccc4c(c3)CNCC43CC3)nc2n2ccnc12 [Example 279, 2-(2′,3′-dihydro-1′H-spiro[cyclopropane-1,4′-isoquinolin]-7′-ylamino)-6-(4-hydroxy-2-methylphenyl)imidazo[1,2-a]pyrimido[5,4-e]pyrimidin-5(6H)-one]
2 | 10 to 100 nM | CC1(C)CN(CC(F)F)Cc2cc(Nc3ncc4c(=O)n(-c5c(F)cccc5Cl)c5nccn5c4n3)ccc21 [Example 280, 6-(2-chloro-6-fluorophenyl)-2-{[2-(2,2-difluoroethyl)-4,4-dimethyl-1,2,3,4-tetrahydroisoquinolin-7-yl]amino}imidazo[1,2-a]pyrimido[5,4-e]pyrimidin-5(6H)-one]
3 | < 10 nM | CC1(C)CN(CCF)Cc2cc(Nc3ncc4c(=O)n(-c5c(F)cccc5Cl)c5nccn5c4n3)ccc21 [Example 281, 6-(2-chloro-6-fluorophenyl)-2-{[2-(2-fluoroethyl)-4,4-dimethyl-1,2,3,4-tetrahydroisoquinolin-7-yl]amino}imidazo[1,2-a]pyrimido[5,4-e]pyrimidin-5(6H)-one]
4 | < 10 nM | O=c1c2cnc(Nc3ccc(N4CCC(N5CCCCC5)CC4)cc3)nc2n2ccnc2n1-c1c(Cl)cccc1Cl [Example 282, 2-{[4-(1,4′-bipiperidin-1′-yl)phenyl]amino}-6-(2,6-dichlorophenyl)imidazo[1,2-a]pyrimido[5,4-e]pyrimidin-5(6H)-one]
5 | < 10 nM | CN(C)[C@@H]1CCN(c2ccc(Nc3ncc4c(=O)n(-c5c(Cl)cccc5Cl)c5nccn5c4n3)cc2)C1 [Example 283, 6-(2,6-dichlorophenyl)-2-({4-[(3R)-3-(dimethylamino)pyrrolidin-1-yl]phenyl}amino)imidazo[1,2-a]pyrimido[5,4-e]pyrimidin-5(6H)-one]
6 | < 10 nM | CN(C)CCNc1ccc(Nc2ncc3c(=O)n(-c4c(Cl)cccc4Cl)c4nccn4c3n2)cc1 [Example 284, 6-(2,6-dichlorophenyl)-2-[(4-{[2-(dimethylamino)ethyl]amino}phenyl)amino]imidazo[1,2-a]pyrimido[5,4-e]pyrimidin-5(6H)-one]
7 | < 10 nM | O=c1c2cnc(Nc3ccc4c(c3)CN(S(=O)(=O)C3CC3)CC43CC3)nc2n2ccnc2n1-c1c(Cl)cccc1Cl [Example 285, 2-{[2′-(cyclopropylsulfonyl)-2′,3′-dihydro-1′H-spiro[cyclopropane-1,4′-isoquinolin]-7′-yl]amino}-6-(2,6-dichlorophenyl)imidazo[1,2-a]pyrimido[5,4-e]pyrimidin-5(6H)-one]
8 | < 10 nM | CC(C)S(=O)(=O)N1Cc2cc(Nc3ncc4c(=O)n(-c5c(Cl)cccc5Cl)c5nccn5c4n3)ccc2C2(CC2)C1 [Example 286, 6-(2,6-dichlorophenyl)-2-{[2′-(propan-2-ylsulfonyl)-2′,3′-dihydro-1′H-spiro[cyclopropane-1,4′-isoquinolin]-7′-yl]amino}imidazo[1,2-a]pyrimido[5,4-e]pyrimidin-5(6H)-one]
9 | < 10 nM | CN1CCC(c2ccc(Nc3ncc4c(=O)n(-c5c(Cl)cccc5Cl)c5nccn5c4n3)cc2)CC1 [Example 287, 6-(2,6-dichlorophenyl)-2-{[4-(1-methylpiperidin-4-yl)phenyl]amino}imidazo[1,2-a]pyrimido[5,4-e]pyrimidin-5(6H)-one]
10 | < 10 nM | O=c1c2cnc(Nc3ccc(N4CCC5(CC4)CNC5)cc3)nc2n2ccnc2n1-c1c(Cl)cccc1Cl [Example 288, 2-{[4-(2,7-diazaspiro[3.5]non-7-yl)phenyl]amino}-6-(2,6-dichlorophenyl)imidazo[1,2-a]pyrimido[5,4-e]pyrimidin-5(6H)-one]
11 | 10 to 100 nM | O=c1c2cnc(Nc3ccc(N4CCCC4C(F)(F)F)cc3)nc2n2ccnc2n1-c1ccccc1Cl (centres unmarked) [Example 289, 6-(2-chlorophenyl)-2-({4-[2-(trifluoromethyl)pyrrolidin-1-yl]phenyl}amino)imidazo[1,2-a]pyrimido[5,4-e]pyrimidin-5(6H)-one]
12 | < 10 nM | O=c1c2cnc(Nc3ccc(OC4CCNCC4)cc3)nc2n2ccnc2n1-c1ccccc1Cl [Example 290, 6-(2-chlorophenyl)-2-{[4-(piperidin-4-yloxy)phenyl]amino}imidazo[1,2-a]pyrimido[5,4-e]pyrimidin-5(6H)-one]
13 | < 10 nM | O=c1c2cnc(Nc3ccc(CC4CCNCC4)cc3)nc2n2ccnc2n1-c1ccccc1Cl [Example 291, 6-(2-chlorophenyl)-2-{[4-(piperidin-4-ylmethyl)phenyl]amino}imidazo[1,2-a]pyrimido[5,4-e]pyrimidin-5(6H)-one]
14 | < 10 nM | O=c1c2cnc(Nc3ccc(N4CC5CNCC5C4)cc3)nc2n2ccnc2n1-c1ccccc1Cl (centres unmarked) [Example 292, 6-(2-chlorophenyl)-2-{[4-(hexahydropyrrolo[3,4-c]pyrrol-2(1H)-yl)phenyl]amino}imidazo[1,2-a]pyrimido[5,4-e]pyrimidin-5(6H)-one]
15 | 10 to 100 nM | CNS(=O)(=O)Cc1ccc(Nc2ncc3c(=O)n(-c4ccccc4Cl)c4nccn4c3n2)cc1 [Example 293, 1-(4-{[6-(2-chlorophenyl)-5-oxo-5,6-dihydroimidazo[1,2-a]pyrimido[5,4-e]pyrimidin-2-yl]amino}phenyl)-N-methylmethanesulfonamide]
16 | 10 to 100 nM | CCN(CC)S(=O)(=O)c1ccc(Nc2ncc3c(=O)n(-c4ccccc4Cl)c4nccn4c3n2)cc1 [Example 294, 4-{[6-(2-chlorophenyl)-5-oxo-5,6-dihydroimidazo[1,2-a]pyrimido[5,4-e]pyrimidin-2-yl]amino}-N,N-diethylbenzenesulfonamide]
17 | < 10 nM | O=c1c2cnc(Nc3ccc4c(c3)CC(NC3CC3)C4)nc2n2ccnc2n1-c1c(Cl)cccc1Cl (centres unmarked) [Example 295, 2-{[2-(cyclopropylamino)-2,3-dihydro-1H-inden-5-yl]amino}-6-(2,6-dichlorophenyl)imidazo[1,2-a]pyrimido[5,4-e]pyrimidin-5(6H)-one]
18 | < 10 nM | O=c1c2cnc(Nc3ccc4c(c3)CC(NCCF)C4)nc2n2ccnc2n1-c1c(Cl)cccc1Cl (centres unmarked) [Example 296, 6-(2,6-dichlorophenyl)-2-({2-[(2-fluoroethyl)amino]-2,3-dihydro-1H-inden-5-yl}amino)imidazo[1,2-a]pyrimido[5,4-e]pyrimidin-5(6H)-one]
19 | < 10 nM | CCCNC1Cc2ccc(Nc3ncc4c(=O)n(-c5c(Cl)cccc5Cl)c5nccn5c4n3)cc2C1 (centres unmarked) [Example 297, 6-(2,6-dichlorophenyl)-2-{[2-(propylamino)-2,3-dihydro-1H-inden-5-yl]amino}imidazo[1,2-a]pyrimido[5,4-e]pyrimidin-5(6H)-one]
20 | < 10 nM | CC(=O)N1CC2(CCN(c3ccc(Nc4ncc5c(=O)n(-c6c(Cl)cccc6Cl)c6nccn6c5n4)cc3)CC2)C1 [Example 298, 2-{[4-(2-acetyl-2,7-diazaspiro[3.5]non-7-yl)phenyl]amino}-6-(2,6-dichlorophenyl)imidazo[1,2-a]pyrimido[5,4-e]pyrimidin-5(6H)-one]
21 | < 10 nM | CS(=O)(=O)N1CC2(CCN(c3ccc(Nc4ncc5c(=O)n(-c6c(Cl)cccc6Cl)c6nccn6c5n4)cc3)CC2)C1 [Example 299, 6-(2,6-dichlorophenyl)-2-({4-[2-(methylsulfonyl)-2,7-diazaspiro[3.5]non-7-yl]phenyl}amino)imidazo[1,2-a]pyrimido[5,4-e]pyrimidin-5(6H)-one]
22 | < 10 nM | CNC(=O)N1Cc2cc(Nc3ncc4c(=O)n(-c5c(F)cccc5Cl)c5nccn5c4n3)ccc2C2(CC2)C1 [Example 300, 7′-{[6-(2-chloro-6-fluorophenyl)-5-oxo-5,6-dihydroimidazo[1,2-a]pyrimido[5,4-e]pyrimidin-2-yl]amino}-N-methyl-1′H-spiro[cyclopropane-1,4′-isoquinoline]-2′(3′H)-carboxamide]
23 | < 10 nM | CC(C)NC(=O)N1Cc2cc(Nc3ncc4c(=O)n(-c5c(F)cccc5Cl)c5nccn5c4n3)ccc2C2(CC2)C1 [Example 301, 7′-{[6-(2-chloro-6-fluorophenyl)-5-oxo-5,6-dihydroimidazo[1,2-a]pyrimido[5,4-e]pyrimidin-2-yl]amino}-N-(propan-2-yl)-1′H-spiro[cyclopropane-1,4′-isoquinoline]-2′(3′H)-carboxamide]
24 | < 10 nM | CC1(C)CN(CCF)Cc2cc(Nc3ncc4c(=O)n(-c5c(Cl)cccc5Cl)c5nccn5c4n3)ccc21 [Example 302, 6-(2,6-dichlorophenyl)-2-{[2-(2-fluoroethyl)-4,4-dimethyl-1,2,3,4-tetrahydroisoquinolin-7-yl]amino}imidazo[1,2-a]pyrimido[5,4-e]pyrimidin-5(6H)-one]
25 | < 10 nM | CS(=O)(=O)N1CC2(CN(c3ccc(Nc4ncc5c(=O)n(-c6c(Cl)cccc6Cl)c6nccn6c5n4)cc3)C2)C1 [Example 303, 6-(2,6-dichlorophenyl)-2-({4-[6-(methylsulfonyl)-2,6-diazaspiro[3.3]hept-2-yl]phenyl}amino)imidazo[1,2-a]pyrimido[5,4-e]pyrimidin-5(6H)-one]
26 | < 10 nM | O=c1c2cnc(Nc3ccc(N4CC5(CNC5)C4)cc3)nc2n2ccnc2n1-c1c(Cl)cccc1Cl [Example 304, 2-{[4-(2,6-diazaspiro[3.3]hept-2-yl)phenyl]amino}-6-(2,6-dichlorophenyl)imidazo[1,2-a]pyrimido[5,4-e]pyrimidin-5(6H)-one]
27 | < 10 nM | O=c1c2cnc(Nc3ccc4c(c3)CC(N3CCCC3)C4)nc2n2ccnc2n1-c1c(Cl)cccc1Cl (centres unmarked) [Example 305, 6-(2,6-dichlorophenyl)-2-{[2-(pyrrolidin-1-yl)-2,3-dihydro-1H-inden-5-yl]amino}imidazo[1,2-a]pyrimido[5,4-e]pyrimidin-5(6H)-one]
28 | < 10 nM | O=c1c2cnc(Nc3ccc4c(c3)CC(N3CC[C@H](F)C3)C4)nc2n2ccnc2n1-c1c(Cl)cccc1Cl (stereo partly drawn) [Example 306, 6-(2,6-dichlorophenyl)-2-({2-[(3S)-3-fluoropyrrolidin-1-yl]-2,3-dihydro-1H-inden-5-yl}amino)imidazo[1,2-a]pyrimido[5,4-e]pyrimidin-5(6H)-one]
29 | < 10 nM | CC1(C)CNCc2cc(Nc3ncc4c(=O)n(-c5c(Cl)cccc5Cl)c5nccn5c4n3)ccc21 [Example 307, 6-(2,6-dichlorophenyl)-2-[(4,4-dimethyl-1,2,3,4-tetrahydroisoquinolin-7-yl)amino]imidazo[1,2-a]pyrimido[5,4-e]pyrimidin-5(6H)-one]

From patent publication US8710065B2, “Tricyclic inhibitors of kinases” (AbbVie Inc., priority 2011, dated 2014)
